Measurements taken from patent US20100137313A1 (ASTRAZENECA AB, priority 2008, published 2010).

molecular target: S. pneumoniae Topoisomerase IV ATPase (ParE) (Streptococcus pneumoniae serotype 4, UniProt Q59961); assay: S. pneumoniae Topoisomerase IV ATPase inhibition; assay type: biochemical; conditions: values marked * are an average of two or more data points
How it was run: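 Malachite green/ammonium molybdate phosphate detection, A650. 1.25 nM ParE, 160 μM ATP, sheared salmon sperm DNA 5 μg/ml, 20 mM Tris pH 8.0, 8.0 mM MgCl2. Controls: 2% DMSO = 0%, 20 μM EDTA = 100% inhibition; IC50 over 10 concentrations.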

Sequence of S. pneumoniae Topoisomerase IV ATPase (ParE) (Q59961 whole entry): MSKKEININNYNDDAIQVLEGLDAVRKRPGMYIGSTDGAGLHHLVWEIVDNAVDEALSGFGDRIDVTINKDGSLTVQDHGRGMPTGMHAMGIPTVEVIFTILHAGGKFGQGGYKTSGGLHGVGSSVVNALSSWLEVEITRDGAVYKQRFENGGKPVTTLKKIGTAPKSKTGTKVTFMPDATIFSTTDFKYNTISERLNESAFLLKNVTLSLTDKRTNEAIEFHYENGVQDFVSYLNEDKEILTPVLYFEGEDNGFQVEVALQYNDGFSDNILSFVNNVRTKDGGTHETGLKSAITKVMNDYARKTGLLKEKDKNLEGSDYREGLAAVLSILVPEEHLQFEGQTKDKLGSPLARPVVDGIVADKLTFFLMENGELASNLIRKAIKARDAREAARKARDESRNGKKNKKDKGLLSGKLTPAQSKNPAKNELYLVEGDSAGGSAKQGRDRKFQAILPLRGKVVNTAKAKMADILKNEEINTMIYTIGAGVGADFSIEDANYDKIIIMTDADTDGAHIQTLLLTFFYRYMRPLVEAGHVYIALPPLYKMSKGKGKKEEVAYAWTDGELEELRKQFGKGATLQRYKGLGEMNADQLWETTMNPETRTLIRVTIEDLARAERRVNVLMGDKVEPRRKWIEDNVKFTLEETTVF

**Q.** Which “% Inh (13 μM) of S. pneumoniae Topoisomerase IV ATPase” value does the source give for “(E)-3-{3-[2-(3- Methoxy-5- tetrazol-1-yl- phenylamino)- 4-morpholin-4- yl-pyrimnidin-5- yl]-phenyl}- acrylic acid [Example 406]” here?
**A.** 99%

same assay, conditions: values marked * are an average of two or more data points, read-out: % Inh (13 μM) of S. pneumoniae Topoisomerase IV ATPase

**Q.** With COc1cc(Nc2ncc(-c3cnc(OC)c(C(=O)NS(=O)(=O)c4sc(NC(C)=O)nc4C)c3)c(-n3nc(C(F)(F)F)cc3C)n2)cc(OC)c1 [Example 834, N-{[2-(acetylamino)-4-methyl-1,3-thiazol-5-yl]sulfonyl}-5-{2-[(3,5-dimethoxyphenyl)amino]-4-[5-methyl-3-(trifluoromethyl)-1H-pyrazol-1-yl]pyrimidin-5-yl}-2-methoxypyridine-3-carboxamide] as the molecule, how does the inhibition at 13 µM read?
**A.** 98%

**Q.** CN(C)CCCNc1nc(Nc2ccc(F)c(Cl)c2)ncc1-c1ccc(/C=C/C(=O)O)cc1 [Example 24, (2E)-3-[4-(2-[(3-chloro-4-fluorophenyl)amino]-4-{[3-(dimethylamino)propyl]-amino}pyrimidin-5-yl)phenyl]prop-2-enoic acid] was tested. Which inhibition at 13 µM did it give?
**A.** 98.1%

**Q.** CCOC(=O)c1cncc(-c2cnc(Nc3ccc(F)c(Cl)c3)nc2N2CCC(NC(C)=O)CC2)c1 [Example 129, ethyl 5-[4-(4-acetamidopiperidin-1-yl)-2-[(3-chloro-4-fluorophenyl)amino]pyrimidin-5-yl]pyridine-3-carboxylate] was tested. Which inhibition at 13 µM did it give?
**A.** 74.9%

**Q.** How did the inhibition at 13 µM turn out when COC(=O)c1cc(-c2cnc(Nc3ccc(F)c(Cl)c3)nc2-n2nc(C(F)(F)F)cc2C)cnc1OC [Example 1008, Methyl 5-(2-(3-chloro-4-fluorophenylamino)-4-(5-methyl-3-(trifluoromethyl)-1H-pyrazol-1-yl)pyrimidin-5-yl)-2-methoxynicotinate] was run?
**A.** 83%

**Q.** For COCCCNc1nc(Nc2ccc(F)c(Cl)c2)ncc1-c1nc(-c2cnoc2C)cs1 [Example 503, N^2-(3-chloro-4-fluorophenyl)-N^4-(3-methoxypropyl)-5-[4-(5-methylisoxazol-4-yl)-1,3-thiazol-2-yl]pyrimidine-2,4-diamine], which inhibition at 13 µM is on record?
**A.** 147%

**Q.** O=C(O)c1cncc(-c2cnc(Nc3ccc(F)c(S(=O)(=O)N4CCOCC4)c3)nc2N2CCOCC2)c1 [Example 444] was tested. Which inhibition at 13 µM did it give?
**A.** 7%

**Q.** How did the inhibition at 13 µM turn out when O=C(O)[C@H]1CCCN1c1cccc(-c2cnc(Nc3ccc(F)c(Cl)c3)nc2-n2ccc(C(F)(F)F)n2)c1 [Example 600, 1-(3-{2-[(3-chloro-4-fluorophenyl)amino]-4-[3-(trifluoromethyl)-1H-pyrazol-1-yl]pyrimidin-5-yl}phenyl)-D-proline] was run?
**A.** 100%

**Q.** How did the inhibition at 13 µM turn out when Cc1cc(C(F)(F)F)nn1-c1nc(Nc2ccc(F)c(Cl)c2)ncc1-c1cc(C(=O)NS(C)(=O)=O)c(=O)n(C)c1 [Example 1049, 5-(2-(3-Chloro-4-fluorophenylamino)-4-(5-methyl-3-(trifluoromethyl)-1H-pyrazol-1-yl)pyrimidin-5-yl)-1-methyl-N-(methylsulfonyl)-2-oxo-1,2-dihydropyridine-3-carboxamide] was run?
**A.** 99%

**Q.** Which inhibition at 13 µM does the source give for COc1cc(Nc2ncc(-c3cnc(OC)nc3)c(-n3nc(C(F)(F)F)cc3C)n2)cc(C(F)(F)F)c1 [Example 885, 2′-methoxy-N-(3-methoxy-5-(trifluoromethyl)phenyl)-4-(5-methyl-3-(trifluoromethyl)-1H-pyrazol-1-yl)-5,5′-bipyrimidin-2-amine] here?
**A.** 100%

**Q.** COc1ncc(-c2cnc(Nc3cc(C)cc(C#N)c3)nc2-n2ccc(C(F)(F)F)n2)cc1C(=O)O [Example 780, 5-{2-[(3-cyano-5-methylphenyl)amino]-4-[3-(trifluoromethyl)-1H-pyrazol-1-yl]pyrimidin-5-yl}-2-methoxypyridine-3-carboxylic acid] was tested. Which inhibition at 13 µM did it give?
**A.** 100%

**Q.** How did the inhibition at 13 µM turn out when COc1ccc(-c2cnc(Nc3ccc(F)c(Cl)c3)nc2NCCCN(C)C)cn1 [Example 18, N^2-(3-chloro-4-fluorophenyl)-N^4-[3-(dimethylamino)propyl]-5-(6-methoxy-pyridin-3-yl)pyrimidin-2,4-diamine] was run?
**A.** 96.6%

**Q.** With COc1cc(Nc2ncc(-c3cc(C(=O)O)cn(C)c3=O)c(-n3ccc(C(F)(F)F)n3)n2)cc(OC)c1 [Example 592, 5-(2-(3,5-dimethoxyphenylamino)-4-(3-(trifluoromethyl)-1H-pyrazol-1-yl)pyrimidin-5-yl)-1-methyl-6-oxo-1,6-dihydropyridine-3-carboxylic acid] as the molecule, how does the inhibition at 13 µM read?
**A.** 100%

**Q.** Which inhibition at 13 µM does the source give for CC(C)Nc1nc(Nc2ccc(F)c(Cl)c2)ncc1-c1cncc(C(=O)O)c1 [Example 243, 5-[2-[(3-chloro-4-fluorophenyl)amino]-4-(propan-2-ylamino)pyrimidin-5-yl]pyridine-3-carboxylic acid] here?
**A.** 83.5%

**Q.** How did the inhibition at 13 µM turn out when CS(=O)(=O)NCCCNc1nc(Nc2ccc(F)c(Cl)c2)ncc1-c1cncnc1 [Ex 378, N-(3-(2-(3-chloro-4-fluorophenylamino)-5,5′-bipyrimidin-4-ylamino)propyl) methanesulfonamide] was run?
**A.** 75.2%

**Q.** With O=C1NC(=O)c2cc(-c3cnc(Nc4ccc(F)c(Cl)c4)nc3-n3ccc(C(F)(F)F)n3)ccc21 [Example 1009, 5-(2-(3-Chloro-4-fluorophenylamino)-4-(3-(trifluoromethyl)-1H-pyrazol-1-yl)pyrimidin-5-yl)isoindole-1,3-dione] as the molecule, how does the inhibition at 13 µM read?
**A.** 92%

**Q.** How did the inhibition at 13 µM turn out when O[C@H]1CC[C@H](Nc2nc(Nc3ccc(F)c(Cl)c3)ncc2-c2cncnc2)CC1 [Example 68, trans-4-[[2-[(3-chloro-4-fluorophenyl)amino]-5-pyrimidin-5-ylpyrimidin-4-yl]amino]cyclohexan-1-ol] was run?
**A.** 72.9%

**Q.** Which inhibition at 13 µM does the source give for CCNC(=O)c1ccc(-c2cnc(Nc3ccc(F)c(Cl)c3)nc2NCCCN(C)C)cc1 [Example 363, 4-(2-(3-chloro-4-fluorophenylamino)-4-(3-(dimethylamino)propylamino)pyrimidin-5-yl)-N-ethylbenzamide] here?
**A.** 57.9%

**Q.** With COCCNC(=O)c1cncc(-c2cnc(Nc3ccc(F)c(Cl)c3)nc2-n2nc(C(F)(F)F)cc2C)c1 [Example 934, 5-(2-(3-chloro-4-fluorophenylamino)-4-(5-methyl-3-(trifluoromethyl)-1H-pyrazol-1-yl)pyrimidin-5-yl)-N-(2-methoxyethyl)nicotinamide] as the molecule, how does the inhibition at 13 µM read?
**A.** 100%

**Q.** O=C(O)c1cncc(-c2cnc(Nc3cc(F)cc(F)c3)nc2-n2ccc(C(F)(F)F)n2)c1 [Example 639, 5-{2-[(3,5-difluorophenyl)amino]-4-[3-(trifluoromethyl)-1H-pyrazol-1-yl]pyrimidin-5-yl}pyridine-3-carboxylic acid] was tested. Which inhibition at 13 µM did it give?
**A.** 100%

**Q.** How did the inhibition at 13 µM turn out when COCC(COC)NC(=O)c1cncc(-c2cnc(Nc3ccc(F)c(Cl)c3)nc2-n2nc(C(F)(F)F)cc2C)c1 [Example 935, 5-(2-(3-chloro-4-fluorophenylamino)-4-(5-methyl-3-(trifluoromethyl)-1H-pyrazol-1-yl)pyrimidin-5-yl)-N-(1,3-dimethoxypropan-2-yl)nicotinamide] was run?
**A.** 100%

**Q.** With O=C(O)COc1ccc(-c2cnc(Nc3ccc(F)c(Cl)c3)nc2N2CCOCC2)cc1 [Example 489, (4-{2-[(3-chloro-4-fluorophenyl)amino]-4-(morpholin-4-yl)pyrimidin-5-yl}phenoxy)acetic acid] as the molecule, how does the inhibition at 13 µM read?
**A.** 97%

**Q.** For COc1cc(Nc2ncc(-c3cncc(C(=O)NCCO)c3)c(-n3ccc(C(F)(F)F)n3)n2)cc(OC)c1 [Example 682, 5-{2-[(3,5-dimethoxyphenyl)amino]-4-[3-(trifluoromethyl)-1H-pyrazol-1-yl]pyrimidin-5-yl}-N-(2-hydroxyethyl)pyridine-3-carboxamide], which inhibition at 13 µM is on record?
**A.** 100%

**Q.** For CN1CCN(CCOc2ncc(-c3cnc(Nc4ccc(F)c(Cl)c4)nc3-n3ccc(C(F)(F)F)n3)cc2C(=O)O)CC1 [Example 962, 5-(2-(3-chloro-4-fluorophenylamino)-4-(3-(trifluoromethyl)-1H-pyrazol-1-yl)pyrimidin-5-yl)-2-(2-(4-methylpiperazin-1-yl)ethoxy)nicotinic acid], which inhibition at 13 µM is on record?
**A.** 98%

**Q.** Which inhibition at 13 µM does the source give for COc1ncc(-c2cnc(Nc3cccc(Cl)c3)nc2-n2ccc(C(F)(F)F)n2)cc1C(=O)O [Example 742, 5-{2-[(3-chlorophenyl)amino]-4-[3-(trifluoromethyl)-1H-pyrazol-1-yl]pyrimidin-5-yl}-2-methoxypyridine-3-carboxylic acid] here?
**A.** 100%

**Q.** How did the inhibition at 13 µM turn out when O=C(O)c1cc(-c2cnc(Nc3ccc(F)c(Cl)c3)nc2N2CCOCC2)cs1 [Example 483, 4-{2-[(3-chloro-4-fluorophenyl)amino]-4-(morpholin-4-yl)pyrimidin-5-yl}thiophene-2-carboxylic acid] was run?
**A.** 66%

**Q.** O=C(O)c1cc2cc(-c3cnc(Nc4ccc(F)c(Cl)c4)nc3N3CCOCC3)ccc2[nH]1 [Example 1064, 5-(2-(3-Chloro-4-fluorophenylamino)-4-morpholinopyrimidin-5-yl)-1H-indole-2-carboxylic acid] was tested. Which inhibition at 13 µM did it give?
**A.** 100%

**Q.** How did the inhibition at 13 µM turn out when CC(=O)N1CCC(Nc2nc(Nc3ccc(F)c(Cl)c3)ncc2-c2cncnc2)CC1 [Example 35, 1-[4-[[2-[(3-chloro-4-fluorophenyl)amino]-5-pyrimidin-5-ylpyrimidin-4-yl]amino]piperidin-1-yl]ethanone] was run?
**A.** 58.3%

**Q.** Cc1cc(C(F)(F)F)nn1-c1nc(Nc2ccc(F)c(Cl)c2)ncc1-c1cncc(S(=O)(=O)N2CCOCC2)c1 [Example 1036] was tested. Which inhibition at 13 µM did it give?
**A.** 100%

**Q.** For COCCN1CCN(c2nc(Nc3ccc(F)c(Cl)c3)ncc2-c2cccc(/C=C/C(=O)O)c2)CC1 [Example 300, (E)-3-(3-(2-(3-chloro-4-fluorophenylamino)-4-(4-(2-methoxyethyl)piperazin-1-yl)pyrimidin-5-yl)phenyl)acrylic acid], which inhibition at 13 µM is on record?
**A.** 82.3%

**Q.** With COc1cc(C#N)cc(Nc2ncc(-c3cccc(/C=C/C(=O)O)c3)c(-n3nc(C(F)(F)F)cc3C)n2)c1 [Example 729, (2E)-3-(3-{2-[(3-cyano-5-methoxyphenyl)amino]-4-[5-methyl-3-(trifluoromethyl)-1H-pyrazol-1-yl]pyrimidin-5-yl}phenyl)prop-2-enoic acid] as the molecule, how does the inhibition at 13 µM read?
**A.** 89%
